Results taken from patent US11590240B2, “Nano-fibular nanoparticle polymer-drug conjugate for sustained dermal delivery of retinoids” (Massachusetts Institute of Technology, priority 2015, dated 2023).

Tests used:
Balb/CJ mouse = experiment: Irritation after topical application to mouse dermis (digital imaging, H&E histology); format: in vivo; conditions: for gross appearance of treated skin: 10 μM ATRA dosing equivalent, topical
Procedure: Mice used for the assessment of irritation were given each of the two different treatments on 1 cm^2 regions of their dorsum, these included PATRA, ATRA, PVA, and PBS. A total of twelve mice were used in this assessment. 50 μL of 10 μM ATRA solution was placed on two 1 cm^2 shaved areas on the flanks of a Balb/CJ mouse on either side of midline. PATRA (0.092 mg mL^−1) and PVA (0.089 mg mL^−1) concentrations were controlled for 10 μM ATRA dosing. These solutions were rubbed into the skin using a cotton-tipped applicator for 30 seconds.
Tissues were fixed in zinc fixative without formalin for 48 hours. The excised tissues were cut on center and then embedded cut-face down in paraffin. Sections were taken at the wound center and at one further level of 500 μm reaching a total of 1 mm sampling length through the application site. At each level an H&E slide was stained. Unstained slides were also taken for potential IHC analysis of the tissue. All sections were 5 μm thick. Image analysis was performed using Image J.
To investigate the relative irritative nature of PATRA in comparison to ATRA, each was tested on the flanks of mice. Irritation was evaluated by digital imaging of the application site of ATRA, PATRA, or control solutions for up to five days post-application as well as by histological evaluation of inflammation after 5 days. In brief, 50 μL of 10 μM ATRA solution was placed on a 1 cm^2 shaved area on the flank of a Balb/CJ mouse. PATRA (0.092 mg mL^−1) and PVA (0.089 mg mL^−1) concentrations were controlled for 10 μM ATRA dosing. This solution is rubbed into the skin using a cotton-tipped applicator for 30 seconds. Each mouse received one of the four different material solutions applied in two locations. Inflammation and dermal changes subsequent to ATRA application were evaluated by both by digital imaging and by H&E histology.

[1] = Uptake, retention and penetration of ATRA in pig skin, Franz diffusion cell; format: in vitro ADME
Procedure: Uptake, retention, and penetration of ATRA in pig skin were investigated using a Franz diffusion cell as described and known in the art. Skin was harvested from the flanks of adult female Yorkshire pigs 1 hour after sacrifice with subcutaneous fat removed. Skin was sectioned and frozen at −80° C. for up to six months prior to use. Skin was prepared for diffusion experiments by thawing in PBS for one hour after which time all hair on the skin was shaven off. Test samples of skin were cut to 30 mm×30 mm square samples and placed into the diffusion cell such that the top of the dermis faced a 3 mL testing retention reservoir and the underside faced a 15 mL penetration reservoir. […]
Samples were placed into the retention reservoir at a concentration of 0.1 mg/mL and followed for up to 12 hours. ATRA concentration was evaluated in both the retention and penetration reservoirs every four hours during this period via UV absorbance measurements. […] For both groups, the penetration reservoir was filled with a hydroalcoholic solution so that the ATRA that could penetrate the skin would be soluble for UV absorbance measurement. […]
Samples to be tested were placed into the retention reservoir at a concentration of 0.1 mg/mL and followed for up to 12 hours. ATRA concentration was evaluated in both the retention and penetration reservoirs every four hours during this period via UV absorbance measurements. […]

[2] = Solubility of free ATRA and PATRA in different solutions (UV absorbance of supernatant); format: physicochemical
Procedure: Solubility was evaluated by bringing 2 mg/ml of ATRA either free or conjugated to PVA into equilibrium at room temperature for 1 hour, followed by centrifugation of the solution at 1,500 rpm for five minutes to remove undissolved precipitate. The supernatant from this process was then used for the testing of ATRA concentration via UV absorbance as previously described.

- fraction of ATRA accumulated within the treated skin ([1]; 12 hours of exposure, 0.1 mg/mL in retention reservoir, room temperature): 1.9±0.9%
- solubility, in words ([2]; PBS 1× (pH7.4)): insoluble
- solubility, in words ([2]; deionized water): insoluble
Structure (SMILES): CC1=C(/C=C/C(C)=C/C=C/C(C)=C/C(=O)O)C(C)(C)CCC1 [ATRA, All-trans retinoic acid]
- stratum corneum (SC) and epidermal thickness, histology (Balb/CJ mouse; after 5 days): Significantly increased
- gross appearance of treated skin (Balb/CJ mouse; five days post-application): still has a rash-like quality with a thick and calloused appearance
- gross appearance of treated skin (Balb/CJ mouse; three days post-application): begins to appear inflamed after three days
- ATRA in the receiving (penetration) reservoir, free ATRA versus PATRA ([1]; every four hours up to 12 hours): much higher level of ATRA accumulation at every time point tested
